Columns and labels:
lipoxygenase = assay: enzyme inhibition, lipoxygenase; type: biochemical
Description: (§1) Rhamnolipid (II) was tested in vitro against a wide array of enzymes.
(§2) The following enzymes were inhibited at the various rhamnolipid concentrations indicated:
(§3) All enzyme assays were done spectrophotometrically by computer linked automatic microplate reader (Labsystem Multiskan) and Diode Array spectrophotometer (Perkin Elmer).

acetylcholinesterase = assay: enzyme inhibition, acetylcholinesterase; type: biochemical
Description: as §1, §2, §3

P561ek Tyrosine Kinase = P561ek Tyrosine Kinase (Homo sapiens, UniProt P06239); assay: enzyme inhibition, p56lck tyrosine kinase; type: biochemical; details: 0.5% DMSO
Description: as §1, §3

P59fyn Tyrosine Kinase = P59fyn Tyrosine Kinase (Homo sapiens, UniProt P06241); assay: enzyme inhibition, p59fyn tyrosine kinase; type: biochemical; details: 0.5% DMSO
Description: as §1, §3

[1] = system: Dopamine D2A (human recombinant); assay: [3H] spiperone dopamine D2A receptor inhibition; type: binding; details: 100 uM
[2] = system: measles edmonston A virus; assay: effect on viruses, measles edmonston A; type: cell-based; details: concentrations ≤100 ug/ml
semliki forest virus = assay: effect on viruses, semliki forest; type: cell-based; details: concentrations ≤100 ug/ml
Description: (§4) Tests were performed according to D. A. Vanden Berghe et al., Inst. Pasteur 84,101 (1986). Rhamnolipid (II) was toxic for VERO cells in concentrations ≥200 ug/ml, and cytotoxic on MT4 cells in concentrations >169.40 ug/ml.

[3] = system: vesicular stomatitis virus; type: cell-based; details: concentrations ≤100 ug/ml
HIV I, strain IIIB = assay: effect on viruses, HIV I strain IIIB; type: cell-based; details: Human immunodeficiency virus 1, IIIB; read-out: maximal protection
Description: as §4

Staphylococcus aureus = assay: minimum inhibitory concentration, Staphylococcus aureus; type: cell-based; details: in tested medium
Source text: (§5) The Minimum inhibitory concentration (MIC) of Rhamnolipid II for Candida albicans, Escherichia coli, Staphylococcus aureus and Pseudomonas aeruginosa was >0.5% in tested medium.

Pseudomonas aeruginosa = assay: minimum inhibitory concentration, Pseudomonas aeruginosa; type: cell-based; details: in tested medium
Source text: as §5

[4] = system: oxazolone-induced delayed type hypersensitivity; assay: immunosuppression (cellular): oxazolone-induced delayed type hypersensitivity; type: in vivo, mouse (ICR, female); details: for Swelling (R -L) / ear thickness, Left Ear (No Oxa.) / ear thickness, Right Ear (24 hrs Oxa.): X +/- SEM
Description: The shaved abdominal surface of groups of 5 mice were sensitized by application of 0.1 ml of 5% oxazolone. The test substance was administered i.p after 1 hour and then daily for 5 consecutive doses. After an additional 4 days, the animals were challenged by application of 25 ul of 5% oxazolone to the right ear. Twenty-four hours later, ear thickness was measured with a Dyer Model micrometer gauge.
A 50 percent or greater decrease in drug-treated versus control animals is considered significant immunosuppressant activity.

mice C57B1/6 [5] = details: mouse, in vivo
Description: Tests were performed on mice C57B1/6, Animal source: Bantin and Kingman. This was done following the procedures described elsewhere in Technical Report Series, National Toxicology Program, U.S. Department of Health and Human services.
Examinations were made in all tests on the following tissues from each mouse necropsied: bone (femur), bone marrow (femur)-slide only, brain, colon, duodenum, testes, heart, kidneys, liver, lungs (infuse with formalin), pancreas, spleen, muscle, adrenal nodes, uterus, gastric.

Psoriasis = assay: clinical treatment of psoriasis; type: in vivo, human
Description: (§6) 17 patients, 11 men and 6 women, were treated with rhamnolipid (II). Among these, 12 patients were suffering from Psoriasis, 2 from Neurodermitis, 1 from Lichen ruber planus, 1 from Serborhoic dermatitis and one from Dermatitis circumscripta unilocularis eczematoides.
All patients were treated by application of a cream containing rhamnolipid II over selected psoriatic localities, 2 times a day for 21 days.
The remaining psoriatic localities on the body were treated with local corticosteroid.
The treatment and the follow-up of the patients was a "double blind" experiment.
The therapeutic efficacy was monitored by PASI-index.
After observing positive results with the first six psoriatic patients, who were treated and monitored until the end of the year, rhamnolipid was applied on larger psoriatic surfaces (up to a half of the patient's body where psoriatic lesions existed). Also, occlusions were used (up to 48 hours) and the duration and usage of occlusions was prolonged up to 35 days.
Patients were seen 3, 6 and 9 months after treatment and they were instructed not to apply any other local preparations at the same localities where rhamnolipic II was applied.

seborhoic dermatitis = assay: clinical treatment of seborhoic dermatitis; type: in vivo, human; details: one patient
Description: as §6

[6] = system: A431 human epidermal cells; details: in particular in the presence of PMA
in vitro [7] = details: monkey, vero cells
in vitro [8] = details: human, mt4 cells
mice C57B1/6 [9] = assay: range-finding study phase (five doses per five days, one dose per day)
[10] = five doses per five days, intraperitoneal

P561ek Tyrosine Kinase, sequence (P06239 whole entry): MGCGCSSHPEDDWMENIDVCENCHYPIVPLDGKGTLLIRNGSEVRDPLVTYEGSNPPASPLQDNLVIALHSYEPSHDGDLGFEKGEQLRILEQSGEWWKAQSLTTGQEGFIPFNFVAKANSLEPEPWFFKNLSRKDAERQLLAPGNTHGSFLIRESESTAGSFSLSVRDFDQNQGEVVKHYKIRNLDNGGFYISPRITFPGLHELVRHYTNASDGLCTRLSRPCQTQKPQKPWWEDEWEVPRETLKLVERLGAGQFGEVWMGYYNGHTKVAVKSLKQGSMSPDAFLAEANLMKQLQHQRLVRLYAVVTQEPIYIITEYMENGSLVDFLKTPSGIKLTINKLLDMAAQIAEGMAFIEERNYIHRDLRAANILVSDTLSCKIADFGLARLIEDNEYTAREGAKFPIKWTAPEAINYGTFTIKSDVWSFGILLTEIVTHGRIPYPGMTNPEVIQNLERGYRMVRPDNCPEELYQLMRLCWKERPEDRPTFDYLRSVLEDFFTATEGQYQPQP
P59fyn Tyrosine Kinase, sequence (P06241 whole entry): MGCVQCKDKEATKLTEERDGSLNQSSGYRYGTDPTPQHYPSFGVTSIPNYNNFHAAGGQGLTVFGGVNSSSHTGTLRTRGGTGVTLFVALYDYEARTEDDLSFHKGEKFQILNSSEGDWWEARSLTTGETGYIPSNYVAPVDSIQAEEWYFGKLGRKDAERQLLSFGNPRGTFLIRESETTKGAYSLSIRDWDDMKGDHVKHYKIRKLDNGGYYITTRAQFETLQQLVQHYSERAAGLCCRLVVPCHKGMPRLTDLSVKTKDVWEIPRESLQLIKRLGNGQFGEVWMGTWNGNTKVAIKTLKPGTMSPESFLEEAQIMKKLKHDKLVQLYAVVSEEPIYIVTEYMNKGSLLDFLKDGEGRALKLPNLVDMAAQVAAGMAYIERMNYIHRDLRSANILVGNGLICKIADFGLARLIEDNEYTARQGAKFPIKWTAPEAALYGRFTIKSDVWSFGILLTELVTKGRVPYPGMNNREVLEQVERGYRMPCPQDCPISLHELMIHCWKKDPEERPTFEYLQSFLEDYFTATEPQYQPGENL

CCCCCCCC(CC(=O)O)OC(=O)CC(CCCCCCC)O[C@@H]1O[C@@H](C)[C@H](O)[C@@H](O)[C@H]1O[C@@H]1O[C@@H](C)[C@H](O)[C@@H](O)[C@H]1O (stereo partly drawn) [Rhamnolipid (II), (alpha-L-rhamnopyranosyl-(1,2)alpha-L-rhamnopyranosyl)-3-hydroxydecanoyl-3-hydroxydecanoic acid]
concentration at which the enzyme was inhibited (lipoxygenase): 10 µg/mL | concentration at which the enzyme was inhibited (acetylcholinesterase): 1 mg/mL | inhibition at 0.01 µM (P561ek Tyrosine Kinase; 0.01 μM): 4% | inhibition at 1 µM (P561ek Tyrosine Kinase; 1 μM): 3% | inhibition at 100 µM (P561ek Tyrosine Kinase; 100 μM): 11% | inhibition at 0.01 µM (P59fyn Tyrosine Kinase; 0.01 μM): 1% | inhibition at 1 µM (P59fyn Tyrosine Kinase; 1 μM): 0% | inhibition at 100 µM (P59fyn Tyrosine Kinase; 100 μM): 15% | inhibition of the dopamine D2A receptor [1]: 53% | antiviral activity [2]: no activity | antiviral activity (semliki forest virus): no activity | antiviral activity [3]: no activity | Emax (HIV I, strain IIIB): 9% | Minimum inhibitory concentration (MIC) (Staphylococcus aureus): > 0.5% | Minimum inhibitory concentration (MIC) (Pseudomonas aeruginosa): > 0.5% | Swelling Inh. % ([4]; IP 0.1 × 5 mg/kg): 16% | Swelling (R -L) ([4]; IP 0.1 × 5 mg/kg): 19.6 +/- 2.9 × 0.01 mm | ear thickness, Left Ear (No Oxa.) ([4]; IP 0.1 × 5 mg/kg): 21.0 +/- 0.8 × 0.01 mm | ear thickness, Right Ear (24 hrs Oxa.) ([4]; IP 0.1 × 5 mg/kg): 40.6 +/- 3.0 × 0.01 mm | Swelling Inh. % ([4]; IP 1 × 5 mg/kg): 22% | Swelling (R -L) ([4]; IP 1 × 5 mg/kg): 20.2 +/- 1.7 × 0.01 mm | ear thickness, Left Ear (No Oxa.) ([4]; IP 1 × 5 mg/kg): 21.0 +/- 0.5 × 0.01 mm | ear thickness, Right Ear (24 hrs Oxa.) ([4]; IP 1 × 5 mg/kg): 41.2 +/- 1.8 × 0.01 mm | Swelling Inh. % ([4]; IP 10 × 5 mg/kg): 19% | Swelling (R -L) ([4]; IP 10 × 5 mg/kg): 20.8 +/- 1.2 × 0.01 mm | ear thickness, Left Ear (No Oxa.) ([4]; IP 10 × 5 mg/kg): 20.8 +/- 0.7 × 0.01 mm | ear thickness, Right Ear (24 hrs Oxa.) ([4]; IP 10 × 5 mg/kg): 41.6 +/- 1.2 × 0.01 mm | Swelling Inh. % ([4]; IP 100 × 5 mg/kg): 26% | Swelling (R -L) ([4]; IP 100 × 5 mg/kg): 19.2 +/- 0.6 × 0.01 mm | ear thickness, Left Ear (No Oxa.) ([4]; IP 100 × 5 mg/kg): 19.0 +/- 0.9 × 0.01 mm | pathohistological changes (mice C57B1/6 [5]): none of the regressive-progressive or inflammatory type of changes were detected | curative effects in comparison with corticosteroids (Psoriasis; 1% concentration): long-lasting curative effects | remission of the treated area (Psoriasis; 1% concentration, some patients): still in remission of the treated area after three years | appearance of relapses (Psoriasis; 10 months after treatment, versus local corticosteroid): significantly delayed | results on psoriatic lesions (Psoriasis; cream, 2 times a day for 21 days, follow up 3, 6 and 9 months): good results | time to curative effect versus local corticosteroid (Psoriasis; in most cases): sooner or in the same period of time it took local corticosteroid | relapses (Psoriasis; some patients, 10 months following the treatment, larger surfaces, occlusions): no relapses were observed even after 10 months | cure (seborhoic dermatitis): completely cured | A431 cell growth [6]: suppressed A431 cell growth | defect of spiralization (CHO cells): not observed | overall structural chromosome damages and number of cells with 2 to 4 aberrations (CHO cells): increased several fold | MCC (in vitro [7]): ≥ 200 µg/mL | MCC (in vitro [8]): > 169 µg/mL | lower bracket dose (LBD) (mice C57B1/6 [9]; [10]): 45 mg/kg | single dose toxicity (mice C57B1/6 [9]; [10]): 5 mg/kg | upper bracket dose (UBD) (mice C57B1/6 [9]; [10]): 125 mg/kg | basophiles (mice C57B1/6 [9]; fourth day after application): significant increase | eosinophiles (mice C57B1/6 [9]; fourth day after application): significant increase | lymphocytes (mice C57B1/6 [9]; fourth day after application): significant decrease | neutrophils (mice C57B1/6 [9]; fourth day after application): significant increase | behavior and appearance of treated mice (mice C57B1/6 [9]; observation period): no changes

— patent US5466675A, “Immunological activity of rhamnolipids” (priority 1992, dated 1995)
